Activity and Km data for six molecules are collected here from ChEMBL document CHEMBL2074037, “Molecular characterization and tissue distribution of a new organic anion transporter subtype (oatp3) that transports thyroid hormones and taurocholate and comparison with oatp2” (J Biol Chem, 1998).

In general, Km refers to the substrate concentration at which the rate is half of its maximum.

The target in data set [1] is T1, Solute carrier organic anion transporter family member 1A4 (Rattus norvegicus, UniProt O35913).
T1 sequence (O35913 whole entry): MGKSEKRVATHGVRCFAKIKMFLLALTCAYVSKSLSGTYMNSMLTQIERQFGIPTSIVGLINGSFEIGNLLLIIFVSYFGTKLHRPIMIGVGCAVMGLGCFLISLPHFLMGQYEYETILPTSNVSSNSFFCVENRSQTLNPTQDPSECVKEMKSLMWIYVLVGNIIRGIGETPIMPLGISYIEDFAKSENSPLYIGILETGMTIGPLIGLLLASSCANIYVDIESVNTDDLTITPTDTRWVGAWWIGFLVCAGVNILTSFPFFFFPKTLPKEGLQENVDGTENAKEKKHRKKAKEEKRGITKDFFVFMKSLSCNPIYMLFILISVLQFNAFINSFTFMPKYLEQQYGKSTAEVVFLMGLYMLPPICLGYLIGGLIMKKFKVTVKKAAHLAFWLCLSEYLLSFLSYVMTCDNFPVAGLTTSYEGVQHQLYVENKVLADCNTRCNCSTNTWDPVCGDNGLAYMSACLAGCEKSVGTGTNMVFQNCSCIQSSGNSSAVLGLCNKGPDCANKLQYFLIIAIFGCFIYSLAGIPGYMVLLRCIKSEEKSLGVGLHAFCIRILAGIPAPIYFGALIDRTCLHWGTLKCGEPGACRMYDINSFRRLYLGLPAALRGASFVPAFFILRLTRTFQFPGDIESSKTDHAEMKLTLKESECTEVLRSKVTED
Description: TP_TRANSPORTER: inhibition of Taurocholate uptake (Taurochorate: 1 uM, T3: 200 uM, data not shown) in Xenopus laevis oocytes. It is filed as functional, cell-based. The following applies: oocyte.

Data set [2] deals with T1, Solute carrier organic anion transporter family member 1A4. Description: TP_TRANSPORTER: inhibition of Taurocholate uptake (Taurochorate: 1 uM, BSP: 200 uM, data not shown) in Xenopus laevis oocytes. The data set is classed as functional, cell-based. The conditions noted are these: oocyte.
Data set [3] shares this target. Put plainly: TP_TRANSPORTER: inhibition of Taurocholate uptake (Taurochorate: 1 uM, E217betaG: 200 uM, data not shown) in Xenopus laevis oocytes. The data set is classed as functional, cell-based. The conditions noted are these: oocyte.
The target is the same in data set [4]. Put plainly: TP_TRANSPORTER: inhibition of Taurocholate uptake (Taurochorate: 1 uM, T4: 200 uM, data not shown) in Xenopus laevis oocytes. It is filed as functional, cell-based. The conditions noted are these: oocyte.
Substrate in data set [5]: N[C@@H](Cc1cc(I)c(Oc2cc(I)c(O)c(I)c2)c(I)c1)C(=O)O
Description: (§1) TP_TRANSPORTER: uptake in Xenopus laevis oocytes. It is filed as functional, cell-based, Oocyte.

Substrate in data set [6]: N[C@@H](Cc1cc(I)c(Oc2ccc(O)c(I)c2)c(I)c1)C(=O)O
Described as §1. It is filed as functional, cell-based, Oocyte.

Regarding `N[C@@H](Cc1cc(I)c(Oc2ccc(O)c(I)c2)c(I)c1)C(=O)O` [LIOTHYRONINE], the Activity entry in data set [1] is “inhibitor [+]”.

With `O=C1OC(c2ccc(O)c(S(=O)(=O)[O-])c2)(c2ccc(O)c(S(=O)(=O)[O-])c2)c2c(Br)c(Br)c(Br)c(Br)c21.[Na+].[Na+]` [SULFOBROMOPHTHALEIN SODIUM], in data set [2], the Activity entry was “inhibitor [+]”.

`C[C@]12CC[C@@H]3c4ccc(O)cc4CC[C@H]3[C@@H]1CC[C@@H]2O[C@@H]1O[C@H](C(=O)O)[C@@H](O)[C@H](O)[C@H]1O` [ESTRADIOL 17B GLUCURONIDE]: the Activity result in data set [3] was “inhibitor [+]”.

On to `N[C@@H](Cc1cc(I)c(Oc2cc(I)c(O)c(I)c2)c(I)c1)C(=O)O` [LEVOTHYROXINE], for which the Activity result in data set [4] was “inhibitor [+]”.

B1: Solute carrier organic anion transporter family member 1A5 (Rattus norvegicus) (protein)
chain: MGETEKRVATHEVRCFSKIKMFLLALTWAYVSKSLSGIYMNTMLTQIERQFDIPTSIVGFINGSFEIGNLLLIIFVSYFGTKLHRPIMIGVGCVIMGLGCFLMSLPHFLMGRYEYETTISPTSNLSSNSFLCMENRSQTLKPTQDPAECIKEMKSLMWIYVLVGNIIRGIGETPIMPLGISYIEDFAKSENSPLYIGILETGKVFGPIVGLLLGSFCASIYVDTGSVNTDDLTITPTDTRWVGAWWIGFLICAGVNILSSIPFFFFPKTLPKEGLQDDVDGTNNDKEEKHREKAKEENRGITKDFLPFMKSLSCNPIYMLLILTSVLQINAFINMFTFLPKYLEQQYGKSTAEVVLLIGVYNLPPICIGYLLIGFIMKKFKITVKKAAYMAFCLSLFEYLLYFLHFMITCDNFPVAGLTASYEGVHHPLYVENKVLADCNRGCSCSTNSWDPVCGDNGLAYMSACLAGCKKSVGTGTNMVFQNCSCIRSSGNSSAVLGLCKKGPECANKLQYFLIMSVIGSFIYSITAIPGYMVLLRCIKPEEKSLGIGLHAFCTRVFAGIPAPIYFGALIDRTCLHWGTLKCGEPGACRMYNINNFRRIYLVLPAALRGSSYLPALFILILMRKFQFPGEIDSSETELAEMKITVKKSECTDVHGSPQVENDGELKTRL
Regarding B1, the Michaelis constant (Km) in data set [5] was 4.93 µM; in data set [6], 7.33 µM.

B2: Solute carrier organic anion transporter family member 1A4 (Rattus norvegicus) (protein)
chain: T1 sequence (O35913 whole entry)
As to B2, the Km in data set [5] came out at 6.53 µM; in data set [6], 5.87 µM.
